The subject of test [1] is HCT116. Description: AC50 cell viability (CellTiter-Glo); higher = less potent. The settings on record: 48 h.
The subject of test [2] is HCT116. Description: efficacy (fitted maximal change in viability relative to DMSO control); higher = less cytotoxic (negative = loss of viability). The settings on record: 48 h.
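Throughout, for AC50 cell viability (CellTiter-Glo): HCT116 colorectal carcinoma cells screened at five concentrations per compound, luminescent viability scaled between DMSO wells and empty wells on each plate, curves fitted per compound.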
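Throughout, for efficacy (fitted maximal change in viability relative to DMSO control): Luminescence-based viability readout, five doses per compound, normalized against on-plate DMSO and empty-well controls, followed by dose-response curve fitting for every drug.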

In the case of `c1cc(N[C@@H]2CCNC2)nc(-c2cnc3ccc(-c4cn[nH]c4)cn23)c1`, the AC50 cell viability in test [1] amounted to 7.42 µM. Besides, the efficacy in test [2] was -59.7%.

Turning to `CC(C)(C)C[C@H]1N[C@@H](C(=O)N[C@H]2CC[C@H](O)CC2)[C@H](c2cccc(Cl)c2F)[C@@]12C(=O)Nc1cc(Cl)ccc12`, in test [1], the AC50 cell viability stood at 4.17 µM. The efficacy in test [2] was -91.1%.

In test [1], `CC(C)CC(=O)Nc1n[nH]c2c1CN(C(=O)C1CCN(C)CC1)C2(C)C` registered an AC50 cell viability of 0.186 µM. Also, in test [2], the efficacy was -68.7%.

In turn, `CC(C)Oc1ccc(C(=O)N[C@H](CNC(=O)CN(C)C)Cc2ccc(-c3cn4cccc([C@H](C)O)c4n3)cc2)cc1Cl` displayed an AC50 cell viability in test [1] of 4.17 µM. Moreover, in test [2], the efficacy was -127%.

Turning to `Cc1cc(I)ccc1Nc1c(C(=O)NOCC2CC2)cc(F)c(F)c1F`, in test [1], the AC50 cell viability is 4.68 µM. For the same compound, the efficacy in test [2] was -95.1%.

With `CC1=C2N=C([NH]C2=CC(=C1)N3CCOCC3)\C4=C(NC[C@@H](O)C5=CC=CC(=C5)Cl)\C=C/NC4=O`, the AC50 cell viability in test [1] was found to be 6.61 µM. In addition, in test [2], the efficacy was -93.9%.

With `Cc1ccc([S+](=O)([O-])Nc2cc(Cl)ccc2C(=O)Nc2nc(-c3ccccc3)cs2)cc1`, the AC50 cell viability in test [1] was 2.63 µM. Besides, in test [2], the efficacy is -82.5%.

`CCCC(CCC)C(=O)NC/1=N/C(=O)N(/C=C1)[C@@H]2O[C@H](CO)[C@@H](O)C2(F)F` had an AC50 cell viability in test [1] of 2.63 µM. In test [2], the efficacy is -48.1%.

Compound `CCN(CC)CCCCNc1ncc2c(n1)N(C)C(=O)N(c1c(Cl)c(OC)cc(OC)c1Cl)C2` gave an AC50 cell viability in test [1] of 11.8 µM. Moreover, in test [2], the efficacy is -80.5%.

`CCNC(=O)c1cc2c(-c3cc(OCCN4CCCC4)c(Cl)cc3Cl)nc(N)nc2s1` yielded an AC50 cell viability in test [1] of 0.456 µM. In test [2], the efficacy is -57.9%.

`CCNC(=O)C[C@H]1/N=C(/C2=CC=C(Cl)C=C2)C3=CC(=CC=C3[N]4C(=NN=C14)C)OC` had an AC50 cell viability in test [1] of 14.8 µM. Moreover, in test [2], the efficacy was -37.7%.

`CN(C)c1ccc(-c2nc3c(N4CCN(CC(=O)Nc5nccs5)CC4)c(Cl)cnc3[nH]2)cc1` gave an AC50 cell viability in test [1] of 0.723 µM. In addition, the efficacy in test [2] was -34.1%.

As to `CN(C)CC(=O)N1CCC(CC1)C2=CC=C(NC(=O)C3=NC(=C[NH]3)C#N)C(=C2)\C4=C\CCCC4`, in test [1], the AC50 cell viability stood at 16.6 µM. The efficacy in test [2] is -80.1%.

For the compound `CN(C)Cc1cccc(N/C(=C2\C(=O)Nc3cc(C(=O)N(C)C)ccc32)c2ccccc2)c1`, in test [1], the AC50 cell viability stood at 13.2 µM. Moreover, the efficacy in test [2] was -69.8%.

`Cc1nn(Cc2ccccc2Cl)c(C)c1CN(C)CC(O)COc1ccc(Cl)cc1` (stereo not given) registered an AC50 cell viability in test [1] of 18.6 µM. Moreover, the efficacy in test [2] was -92.3%.

`CN1CCN(c2cccc(Nc3nc4c(-c5ccc([S+](C)(=O)[O-])cc5)cccn4n3)c2)CC1`: the AC50 cell viability in test [1] stood at 16.6 µM. The efficacy in test [2] was -121%.

Regarding `Cc1cc(Nc2cc(N3CCN(C)CC3)nc(/C=C/c3ccccc3)n2)n[nH]1`, in test [1], the AC50 cell viability is 5.9 µM. In addition, the efficacy in test [2] is -99.9%.

Regarding `CNC(=O)C1=CC=C(C)C(=C1)N2C(=C/C(=C(/Br)C2=O)OCC3=C(F)C=C(F)C=C3)\C`, the AC50 cell viability in test [1] turned out to be 16.6 µM. Also, the efficacy in test [2] was -41.4%.

The compound `CNC(=O)Cn1cc(-c2ccc3c(c2)C(F)CC32NC(=O)N(CC(=O)N(Cc3ccc(F)cc3)C(C)C(F)(F)F)C2=O)cn1` (stereo not given) showed an AC50 cell viability in test [1] of 0.934 µM. Also, the efficacy in test [2] is -51.2%.

Turning to `CNCc1ccc(C)c(NC(=O)c2ccc(Nc3nc(-c4ccccc4)c4ccccc4n3)cc2)c1`, the AC50 cell viability in test [1] was 18.6 µM. In test [2], the efficacy was -94.8%.

In test [1], `CNCCn1c(=O)c2cc(OC)c(OC)cc2c2cnc3cc4c(cc3c21)OCO4` returned an AC50 cell viability of 0.0303 µM. For the same compound, in test [2], the efficacy was -80.9%.

Regarding `COc1cc(-c2cc(-c3ccc(N4CCNCC4)cc3)cnc2C)cc(OC)c1OC`, the AC50 cell viability in test [1] was found to be 9.34 µM. In test [2], the efficacy is -57.2%.

On to `COc1cc2ncnc(-n3nc(-c4ccccn4)nc3N)c2cc1OC`, for which, in test [1], the AC50 cell viability came out at 4.68 µM. Moreover, the efficacy in test [2] is -47.9%.

As for `COc1cc2nc(-c3ccc(N4CCN(C)CC4)cc3)nc(NCCN3CCOCC3)c2cc1OC`, the AC50 cell viability in test [1] worked out at 2.95 µM. In addition, in test [2], the efficacy was -87.2%.

For `COc1ccc(-c2cc(C(O)C3CCCCN3)c3ccccc3n2)cc1` (stereo not given), the AC50 cell viability in test [1] came to 4.68 µM. The efficacy in test [2] was -90.9%.

`COc1ccc(Cl)c(Nc2ncnc3cc(OCC4CCN(C)CC4)c(OC)cc23)c1` came in with an AC50 cell viability in test [1] of 23.5 µM. The efficacy in test [2] was -93.6%.

For `Cc1cc(OCCCc2c3n(c4c(-c5c(C)nn(C)c5C)c(Cl)ccc24)[C@H](C)CN(c2cn(C)c4ccc(C(=O)O)cc24)C3=O)cc(C)c1Cl`, in test [1], the AC50 cell viability turned out to be 16.6 µM. Further, the efficacy in test [2] was -93.6%.

`C[S+](=O)([O-])N1CCc2c(-c3cnc(N)nc3)nc(N3CCOCC3)nc21` gave an AC50 cell viability in test [1] of 0.661 µM. The efficacy in test [2] was -56.8%.

In test [1], `C[S+]([O-])c1ccc(-c2nc(-c3ccc(F)cc3)c(-c3ccncc3)[nH]2)cc1` (stereo not given) showed an AC50 cell viability of 18.6 µM. The efficacy in test [2] was -83.2%.

`O=C(N[C@@H](c1ccccc1)[C@@H]1CCCCN1)c1cccc(C(F)(F)F)c1Cl` gave an AC50 cell viability in test [1] of 20.9 µM. In addition, the efficacy in test [2] was -108%.

For `O=C(Nc1ccccc1Br)N[C@@H]1CCN(c2ccc(C(F)(F)F)cn2)C1`, the AC50 cell viability in test [1] was found to be 16.6 µM. Besides, the efficacy in test [2] is -39.8%.

For the compound `Fc1ccc(-c2csc3ncnc(NCc4ccc5c(c4)OCO5)c23)cc1`, in test [1], the AC50 cell viability was 8.33 µM. Besides, in test [2], the efficacy was -57.3%.

`N#Cc1cccc(-c2c[nH]c3ncnc(N4CCOCC4)c23)c1` displayed an AC50 cell viability in test [1] of 16.6 µM. In test [2], the efficacy is -40.9%.

In turn, `Nc1nc(Nc2ccc([S+](N)(=O)[O-])cc2)nn1C(=O)c1c(F)cccc1F` came in with an AC50 cell viability in test [1] of 1.66 µM. For the same compound, the efficacy in test [2] is -65.7%.

In turn, `Nc1n[nH]c2nnc(-c3c(-c4ccccc4)nn4ccccc34)cc12` had an AC50 cell viability in test [1] of 18.6 µM. Also, in test [2], the efficacy was -41.3%.

Take `NC\1=N\C(=O)N(\C=C1F)[C@H]2C[C@H](O)[C@@H](CO)O2`: the AC50 cell viability in test [1] came out at 0.105 µM. Further, the efficacy in test [2] was -64%.

Consider `O=C(C1CC1)N1CC[C@@H](Cn2c(-c3ccc(-c4ccc5occc5c4)cc3)nc3cnccc32)C1`, for which the AC50 cell viability in test [1] was 23.5 µM. The efficacy in test [2] is -66.1%.

With `O=C(NCCCNc1nc(Nc2cccc(CN3CCOCC3)c2)ncc1C1CC1)C1CCC1`, the AC50 cell viability in test [1] worked out at 16.6 µM. Further, the efficacy in test [2] was -96.5%.

In test [1], `O=C(NCC(=O)N1CC[C@H](NC2CCC(O)(c3ccc(-c4ncccn4)cn3)CC2)C1)c1cccc(C(F)(F)F)c1` (stereo not given in full) showed an AC50 cell viability of 5.9 µM. Further, in test [2], the efficacy is -47%.

Consider `O=C1CSC(=O)N1C(CCc1ccncc1)COc1ccc(-c2cccc([N+](=O)[O-])c2)cc1` (stereo not given), for which the AC50 cell viability in test [1] was 2.63 µM. The efficacy in test [2] is -32.9%.

These data come from the supplement of paper PMC10290057.
